From patent US11767323B2, “Tricyclic pyridone compounds as JAK2 V617F inhibitors” (Incyte Corporation, priority 2020, dated 2023) come the findings set out here.

SMILES strings stand for the structures.

In experiment [1] the target is pseudo-kinase domain (JH2, amino-acids 536-812) of human V617F mutant JAK2 (Homo sapiens (Human), UniProt O60674, F794H/V617F/W659A/W777A). Put plainly: JAK2 LanthaScreen JH2-V617F Binding Assay. Conditions: JAK2 JH2-V617F 0.26 nM, 50 nM tracer, 1 hour at 25° C.; read-out: JH2 BIND V617F IC50. Here is the method:
Example C. JAK2 LanthaScreen JH2-V617F Binding Assay
(§1) JAK2 JH2-V617F binding assay utilizes pseudo-kinase domain (JH2, amino-acids 536-812 with 3 surface mutations W659A, W777A, F794H) of human V617F mutant JAK2 expressed as C-terminal His-Avi-tagged, biotinylated protein in a baculovirus expression system (BPS Bioscience, Catalog #79498). The assay was conducted in black 384-well polystyrene plates in a final reaction volume of 20 μL. JAK2 JH2-V617F (0.26 nM) was incubated with compounds (100 nL serially diluted in DMSO) in the presence of 50 nM Fluorescent JAK2-JH2 Tracer (MedChem Express Catalog #HY-102055) and 0.25 nM Streptavidin-Tb cryptate (Cisbio Part #610SATLB) in assay buffer (50 mM Tris, pH=7.5, 10 mM MgCl2, 0.01% Brij-35, 0.1% BSA, 1 mM EGTA, 5% Glycerol and 5 mM DTT). Non-specific binding was accessed in the presence of 2 mM ATP. After incubation for 1 hour at 25° C., LanthaScreen signals were read on a PHERAstar FS plate reader (BMG LABTECH). Data was analyzed with IDBS XLfit and GraphPad Prism 5.0 software using a four parameter dose response curve to determine IC50 for each compound.
(In TR-FRET formats the signal depends on donor and acceptor labels being close together.)

Experiment [2] has as its target pseudo-kinase domain (JH2, amino-acids 536-812) of human Wild Type JAK2 (Homo sapiens (Human), UniProt O60674, F794H/W659A/W777A). Put plainly: JAK2 LanthaScreen JH2-WT Binding Assay. Conditions: JAK2 JH2-WT 0.145 nM, 50 nM tracer, 1 hour at 25° C.; read-out: JH2 BIND WT IC50. Here is the method:
Example B. JAK2 LanthaScreen JH2-WT Binding Assay
as §1, with “JH2-WT” for “JH2-V617F”, “Wild Type” for “V617F mutant”, “#79463).” for “#79498).”, “JH2-WT (0.145” for “JH2-V617F (0.26”, “LAB TECH).” for “LABTECH).”

In experiment [3] the target is catalytic domain (JH1, amino acids 808-1132) of human JAK2 (Homo sapiens (Human), UniProt O60674). Put plainly: JAK2 HTRF Enzyme Activity Assay. In kind it is biochemical. Conditions: JAK2 0.015 nM, ATP (30 μM or 1 mM), 60 minutes at 25° C. How it is done: Example D. JAK2 HTRF Enzyme Activity Assay
JAK2 enzyme activity assays utilize catalytic domain (JH1, amino acids 808-1132) of human JAK2 expressed as N-terminal His-tagged protein in a baculovirus expression system (BPS Bioscience, Catalog #40450). The assays was conducted in black 384-well polystyrene plates in a final reaction volume of 20 μL. JAK2 (0.015 nM) was incubated with compounds (100 nL serially diluted in DMSO) in the presence of ATP (30 μM or 1 mM) and 500 nM Biotin-labeled EQEDEPEGDYFEWLE (SEQ ID NO.: 1) peptide (BioSource International, custom synthesis) in assay buffer (50 mM Tris, pH=7.5, 10 mM MgCl2, 0.01% Brij-35, 0.1% BSA, 1 mM EGTA, 5% Glycerol and 5 mM DTT) for 60 minutes at 25° C. The reactions were stopped by the addition of 10 μL of detection buffer (50 mM Tris, pH 7.8, 0.5 mg/mL BSA, 150 mM NaCl), supplemented with EDTA, LANCE Eu-W1024 anti-phosphotyrosine (PY20), (PerkinElmer, Catalog #AD0067) and Streptavidin SureLight APC (PerkinElmer Catalog #CR130-100), for a final concentration of 15 mM, 1.5 nM and 75 nM, respectively. HTRF signals were read after 30 minutes incubation at room temperature on a PHERAstar FS plate reader (BMG LAB TECH). Data was analyzed with IDBS XLfit and GraphPad Prism 5.0 software using a four parameter dose response curve to determine IC50 for each compound.

The target in experiment [4] is catalytic domain (JH1, amino acids 826-1132) of human JAK2 (Homo sapiens (Human), UniProt O60674). In words: JAK2 LanthaScreen JH1 Binding Assay. Conditions: JAK2 JH1 1.5 nM, 50 nM tracer, 2 hours at 25° C.; read-out: JH1 BIND IC50. How it is done: Example A. JAK2 LanthaScreen JH1 Binding Assay
JAK2 JH1 binding assay utilizes catalytic domain (JH1, amino acids 826-1132) of human JAK2 expressed as N-terminal FLAG-tagged, biotinylated protein in a baculovirus expression system (Carna Biosciences, Product #08-445-20N). The assay was conducted in black 384-well polystyrene plates in a final reaction volume of 20 μL. JAK2 JH1 (1.5 nM) was incubated with compounds (100 nL serially diluted in DMSO) in the presence of 50 nM Fluorescent JAK2-JH1 Tracer and 0.5 nM Streptavidin-Tb cryptate (Cisbio Part #610SATLB) in assay buffer (50 mM Tris, pH=7.5, 10 mM MgCl2, 0.01% Brij-35, 0.1% BSA, 1 mM EGTA, 5% Glycerol and 5 mM DTT). Non-specific binding was accessed in the presence of 2 mM ATP. After incubation for 2 hours at 25° C., LanthaScreen signals were read on a PHERAstar FS plate reader (BMG LABTECH). Data was analyzed with IDBS XLfit and GraphPad Prism 5.0 software using a four parameter dose response curve to determine IC50 for each compound.

catalytic domain (JH1, amino acids 808-1132) of human JAK2, sequence (O60674 808-1132): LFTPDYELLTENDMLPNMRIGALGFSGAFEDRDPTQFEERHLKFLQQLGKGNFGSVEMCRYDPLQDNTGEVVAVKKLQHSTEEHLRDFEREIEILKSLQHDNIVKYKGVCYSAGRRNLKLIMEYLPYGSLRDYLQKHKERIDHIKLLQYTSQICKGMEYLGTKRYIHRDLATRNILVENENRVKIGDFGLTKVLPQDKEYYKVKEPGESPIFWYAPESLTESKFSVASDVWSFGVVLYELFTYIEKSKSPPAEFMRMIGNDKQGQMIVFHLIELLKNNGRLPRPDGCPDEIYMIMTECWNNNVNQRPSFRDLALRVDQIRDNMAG
catalytic domain (JH1, amino acids 826-1132) of human JAK2, sequence (O60674 826-1132): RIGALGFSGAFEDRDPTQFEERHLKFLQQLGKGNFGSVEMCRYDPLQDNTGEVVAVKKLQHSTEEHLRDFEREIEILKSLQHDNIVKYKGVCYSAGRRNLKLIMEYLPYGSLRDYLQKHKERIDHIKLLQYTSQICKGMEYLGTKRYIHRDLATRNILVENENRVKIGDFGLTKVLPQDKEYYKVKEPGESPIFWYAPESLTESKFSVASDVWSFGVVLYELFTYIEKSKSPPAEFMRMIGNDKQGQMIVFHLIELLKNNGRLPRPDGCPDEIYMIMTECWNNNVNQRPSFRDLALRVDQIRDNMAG
pseudo-kinase domain (JH2, amino-acids 536-812) of human V617F mutant JAK2, sequence (O60674 536-812 V617F/W659A/W777A/F794H): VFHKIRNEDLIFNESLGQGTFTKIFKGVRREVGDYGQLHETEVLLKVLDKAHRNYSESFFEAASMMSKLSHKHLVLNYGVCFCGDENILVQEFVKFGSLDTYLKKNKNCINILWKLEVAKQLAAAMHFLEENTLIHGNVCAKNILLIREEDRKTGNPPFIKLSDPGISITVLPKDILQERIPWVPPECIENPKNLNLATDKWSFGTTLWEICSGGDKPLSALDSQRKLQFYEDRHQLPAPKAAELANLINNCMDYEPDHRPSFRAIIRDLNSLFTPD
pseudo-kinase domain (JH2, amino-acids 536-812) of human Wild Type JAK2, sequence (O60674 536-812 W659A/W777A/F794H): as the sequence (O60674 536-812 V617F/W659A/W777A/F794H) above, with F82V counted along it

In general, IC50 refers to the concentration that gives 50% inhibition. `CS(=O)(=O)C1CCN(Cc2ccc(-c3cc4c(ncc5[nH]c(=O)c(-c6ccccc6)cc54)[nH]3)cc2)CC1` [Example 1, 2-(4-((4-(Methylsulfonyl)piperidin-1-yl)methyl)phenyl)-8-phenyl-3,6-dihydro-7H-pyrrolo[3,2-f][1,7]naphthyridin-7-one]: the IC50 in experiment [1] is 1 to 10 µM; in experiment [2], 1 to 10 µM; in experiment [3], more than 10 µM; in experiment [4], 1 to 10 µM.
`CS(=O)(=O)C1CCN(Cc2ccc(-c3cc4c(ncc5[nH]c(=O)c(-c6ccc(C(=O)O)cc6)cc54)[nH]3)cc2)CC1` [Example 2, 4-(2-(4-((4-(Methylsulfonyl)piperidin-1-yl)methyl)phenyl)-7-oxo-6,7-dihydro-3H-pyrrolo[3,2-f][1,7]naphthyridin-8-yl)benzoic acid]: the 50% inhibitory concentration (IC50) in experiment [1] was not above 0.1 µM; in experiment [2], not above 0.1 µM; in experiment [3], more than 10 µM; in experiment [4] it was more than 10 µM.
For `CS(=O)(=O)C1CCN(Cc2ccc(-c3cc4c(ncc5[nH]c(=O)c(C#N)cc54)[nH]3)cc2)CC1` [Example 3, 2-(4-((4-(Methylsulfonyl)piperidin-1-yl)methyl)phenyl)-7-oxo-6,7-dihydro-3H-pyrrolo[3,2-f][1,7]naphthyridine-8-carbonitrile], the IC50 was 1 to 10 µM in experiment [1], 1 to 10 µM in experiment [2], more than 10 µM in experiment [3] and more than 10 µM in experiment [4].
As for `Cn1nccc1-c1cc2c(cnc3[nH]c(-c4ccc(CN5CCC(S(C)(=O)=O)CC5)cc4)cc32)[nH]c1=O` [Example 4, 8-(1-Methyl-1H-pyrazol-5-yl)-2-(4-((4-(methylsulfonyl)piperidin-1-yl)methyl)phenyl)-3,6-dihydro-7H-pyrrolo[3,2-f][1,7]naphthyridin-7-one], the IC50 in experiment [1], in experiment [2], in experiment [3] and in experiment [4] was 1 to 10 µM each time.
As to `CS(=O)(=O)C1CCN(Cc2ccc(-c3cc4c(ncc5[nH]c(=O)c(-c6nnn[nH]6)cc54)[nH]3)cc2)CC1` [Example 5, 2-(4-((4-(Methylsulfonyl)piperidin-1-yl)methyl)phenyl)-8-(1H-tetrazol-5-yl)-3,6-dihydro-7H-pyrrolo[3,2-f][1,7]naphthyridin-7-one], the IC50 is 1 to 10 µM in experiment [1], 0.5 to 1 µM in experiment [2], 1 to 10 µM in experiment [3] and more than 10 µM in experiment [4].
Take `Cc1c(-c2ccc(C(=O)O)cc2)c(=O)[nH]c2cnc3[nH]c(-c4ccc(CN5CCC(S(C)(=O)=O)CC5)cc4)cc3c12` [Example 6, 4-(9-Methyl-2-(4-((4-(methylsulfonyl)piperidin-1-yl)methyl)phenyl)-7-oxo-6,7-dihydro-3H-pyrrolo[3,2-f][1,7]naphthyridin-8-yl)benzoic acid]: the IC50 in experiment [1] was not above 0.1 µM; in experiment [2] it was not above 0.1 µM; in experiment [3] it was more than 10 µM; in experiment [4], more than 10 µM.
With `Cc1c(-c2ccc(-n3cnnn3)cc2)c(=O)[nH]c2cnc3[nH]c(-c4ccc(CN5CCC(S(C)(=O)=O)CC5)cc4)cc3c12` [Example 7, 8-(4-(1H-Tetrazol-1-yl)phenyl)-9-methyl-2-(4-((4-(methylsulfonyl)piperidin-1-yl)methyl)phenyl)-3,6-dihydro-7H-pyrrolo[3,2-f][1,7]naphthyridin-7-one], the IC50 in experiment [1] lay in the range of 1 to 10 µM; in experiment [2] it was 0.1 to 0.5 µM; in experiment [3], 1 to 10 µM; in experiment [4] it was 1 to 10 µM.
Take `Cc1c(-c2ccc(C(=O)O)cc2)c(=O)n(C)c2cnc3[nH]c(-c4ccc(CN5CCC(S(C)(=O)=O)CC5)cc4)cc3c12` [Example 8, 4-(6,9-Dimethyl-2-(4-((4-(methylsulfonyl)piperidin-1-yl)methyl)phenyl)-7-oxo-6,7-dihydro-3H-pyrrolo[3,2-f][1,7]naphthyridin-8-yl)benzoic acid]: the IC50 is not above 0.1 µM in experiment [1], not above 0.1 µM in experiment [2], 0.1 to 0.5 µM in experiment [3] and 0.1 to 0.5 µM in experiment [4].
As to `Cc1ccc(-c2c(C)c3c4cc(-c5ccc(CN6CCC(S(C)(=O)=O)CC6)cc5)[nH]c4ncc3n(C)c2=O)cc1` [Example 9, 6,9-Dimethyl-2-(4-((4-(methylsulfonyl)piperidin-1-yl)methyl)phenyl)-8-(p-tolyl)-3,6-dihydro-7H-pyrrolo[3,2-f][1,7]naphthyridin-7-one], the IC50 in experiment [1], in experiment [2], in experiment [3] and in experiment [4] was not above 0.1 µM throughout.
`Cc1c(-c2ccc(Cl)cc2)c(=O)n(C)c2cnc3[nH]c(-c4ccc(CN5CCC(S(C)(=O)=O)CC5)cc4)cc3c12` [Example 10, 8-(4-Chlorophenyl)-6,9-dimethyl-2-(4-((4-(methylsulfonyl)piperidin-1-yl)methyl)phenyl)-3,6-dihydro-7H-pyrrolo[3,2-f][1,7]naphthyridin-7-one]: the IC50 in experiment [1] is not above 0.1 µM; in experiment [2], not above 0.1 µM; in experiment [3] it was 0.1 to 0.5 µM; in experiment [4], 0.1 to 0.5 µM.
As to `Cc1c(-c2cccc(Cl)c2)c(=O)n(C)c2cnc3[nH]c(-c4ccc(CN5CCC(S(C)(=O)=O)CC5)cc4)cc3c12` [Example 11, 8-(3-Chlorophenyl)-6,9-dimethyl-2-(4-((4-(methylsulfonyl)piperidin-1-yl)methyl)phenyl)-3,6-dihydro-7H-pyrrolo[3,2-f][1,7]naphthyridin-7-one], the IC50 in experiment [1], in experiment [2], in experiment [3] and in experiment [4] was not above 0.1 µM throughout.
